Here are results for 2 compounds from patent US20240327928A1, “METHOD FOR IDENTIFYING RESPONSIVENESS TO FIBROBLAST GROWTH FACTOR RECEPTOR 1 INHIBITOR THERAPY” (UNIVERSITÄT ZU KÖLN, priority 2021, published 2024).

A value given as a limit tells only on which side of the number the result lay.

Assay [1] relates to Ba/F3 cells expressing ΔEC-FGFR1. The experiment in a line: Screening of Ba/F3 cells expressing ΔEC-FGFR1 with FGFR inhibitors (cellular ATP content after 96 hours). It is filed as cell-based, murine. As to conditions: IL3 depleted conditions. The text has this:
Located genes in this region (middle, bottom; positive strand, negative strand), break coverage (top), location of tail-to-tail breaks (arrows and black dashed lines) are shown. Normal exon structure of NSD3 and FGFR1 with the genomic breaks are indicated by an asterisk independent of the chromosomal position shown above (bottom). b) Resulting rearrangement of the t-to-t break (dashed lines, top) and spanning reads from whole transcriptome sequencing data (bottom) is shown. c) PCR from corresponding cDNA with two different primer pairs, spanning the t-to-t break and FGFR1 (left) and matched normal cDNA (right) d) Hybrid-capture-based genomic sequencing (468×depth) copy number plot zoomed to the location of FGFR1 (middle). Tumor sample is from a patient with unknown response upon FGFR inhibition. Normal exon structure of FGFR1 (bottom), location of a tail-to-tail break (arrows), and break coverage (top) is shown. e) The resulting rearrangement of the t-to-t break is shown (dashed lines). f) Break spanning reads detected by ARCHER sequencing technique are indicated. g) Immunoblotting of transformed Baf3 cells (Baf3 FGFR1 AEC and Baf3 EML4-ALK as control) vs. non-transformed Baf3 cells transduced with empty Vector (Baf3 e.V.), FGFR1 alpha (Baf3 FGFR1aplpa), and FGFR1 beta (Baf3 FGFR1beta). […]

The next assay has as its system DMS114. Briefly: GI50 screening of FGFR1-amplified lung cancer cell lines against FGFR inhibitors. In kind it is cell-based. As to conditions: Homo sapiens, DMS-114; sensitive cell line DMS114; read-out: half-growth-inhibitory concentration, or GI50. The procedure:
(§1) Bars are indicated by number (1) (GI50>1 μM) or number (2) (GI50>1 μM) b) Average copy number of 6 cell lines not sensitive upon FGFR inhibition (marked by number (1)) and 2 cell lines which are sensitive upon FGFR inhibition (marked by number (2)). Copy number was extracted from genomic sequencing or whole exome sequencing data and plotted to chromosome 8 (hg19) with ROBOCOP. Location of NSD3 and FGFR1 with grey-backed surface c) Average tumor growth reduction of 8 patient derived xenograft tumor models treated with BG.J398 vs. vehicle. All models were confirmed to be FGFR1 amplified by FGFR1 FISH. Each bar represents an experiment of at least six mice and 12 tumors. Bars are marked by number (1) (tumor reduction of <30%) or by number (2) (tumor reduction of >30%). d) Average copy number of 5 patient derived xenograft tumor models not benefitting from FGFR inhibition (marked by number (1)) and 3 patient derived xenograft tumor (PDX) models which benefit from FGFR inhibition (marked by number (2)). […]
(§2) To gain a deeper understanding of 8p11-8p12-amplified lung cancer tumors and to link specific patterns of the 8p12-8p11 amplicon structure with FGFR1 dependency, the inventors analyzed an independent cohort of 26 8p-amplified tumor specimens with known sensitivity to FGFR inhibition. […]

The subject of another assay is H1581. The description is as above. It is filed as cell-based. As to conditions: Homo sapiens, NCI-H1581; sensitive cell line H1581; read-out: half-growth-inhibitory concentration, or GI50. The procedure: as §1, §2
Assay [2] concerns FGFR1-amplified lung cancer cell lines. Briefly: GI50 screening of FGFR1-amplified lung cancer cell lines against FGFR inhibitors (6 resistant lines). In kind it is cell-based. The conditions noted are these: 6 of 8 FGFR1-amplified lung cancer cell lines, read-out: half-growth-inhibitory concentration, or GI50. As for the experimental part:
as §1, §2

The test system of assay [3] is FGFR1 amplified patient derived xenograft (PDX) models of squamous cell lung cancer. Briefly: Patient derived xenograft tumor models treated with BG.J398 vs. vehicle. It is filed as in vivo, mice. The conditions noted are these: 20 mg/kg daily oral. As for the experimental part: Bars are indicated by number (1) (GI50>1 μM) or number (2) (GI50>1 μM) b) Average copy number of 6 cell lines not sensitive upon FGFR inhibition (marked by number (1)) and 2 cell lines which are sensitive upon FGFR inhibition (marked by number (2)). Copy number was extracted from genomic sequencing or whole exome sequencing data and plotted to chromosome 8 (hg19) with ROBOCOP. Location of NSD3 and FGFR1 with grey-backed surface c) Average tumor growth reduction of 8 patient derived xenograft tumor models treated with BG.J398 vs. vehicle. All models were confirmed to be FGFR1 amplified by FGFR1 FISH. Each bar represents an experiment of at least six mice and 12 tumors. Bars are marked by number (1) (tumor reduction of <30%) or by number (2) (tumor reduction of >30%). d) Average copy number of 5 patient derived xenograft tumor models not benefitting from FGFR inhibition (marked by number (1)) and 3 patient derived xenograft tumor (PDX) models which benefit from FGFR inhibition (marked by number (2)). Copy number was extracted from genomic sequencing data and plotted to chromosome 8 (hg19) with ROBOCOP. e) Tumor volume change of patients with squamous cell lung cancer harboring FGFR1 amplification and treated with BG.J398. Tumor volume change was measured by RECIST criteria. […] TUM003 and TUM007 died during treatment and no sign of response. * labeled sample was an of label FGFR inhibitor treated patient where no RECIST data were available. f) Average copy number of 5 patients with progressive disease (marked by number (2)) and 4 patients with durable, partial response upon FGFR inhibition (marked by number (1), one patient was treated with an off label used FGFR inhibitor (GW786034 HCl). […]
Furthermore, the inventors analysed patient-derived 8p12-8p11-amplified squamous cell lung cancer xenotransplant models. In total, the inventors performed FGFR1 fluorescence in situ hybridization (FISH) on 35 patient derived xenograft (PDX) models from EpoBerlin, 39 PDX models from Crown Bioscience Inc., 3 samples of Moro Massimo as previously described. […]
(In general: Xenograft models place foreign cells or tissue in a host animal.)

Assay [4] has as its system FGFR1-amplified squamous cell lung cancer. The experiment in a line: Patients with FGFR1-amplified squamous cell lung cancer treated with an FGFR inhibitor (phase I clinical trial / off-label use). In kind it is in vivo, human. The conditions noted are these: 8 patients treated with BG.J398, phase I clinical trial. As for the experimental part:
Bars are indicated by number (1) (GI50>1 μM) or number (2) (GI50>1 μM) b) Average copy number of 6 cell lines not sensitive upon FGFR inhibition (marked by number (1)) and 2 cell lines which are sensitive upon FGFR inhibition (marked by number (2)). Copy number was extracted from genomic sequencing or whole exome sequencing data and plotted to chromosome 8 (hg19) with ROBOCOP. Location of NSD3 and FGFR1 with grey-backed surface c) Average tumor growth reduction of 8 patient derived xenograft tumor models treated with BG.J398 vs. vehicle. All models were confirmed to be FGFR1 amplified by FGFR1 FISH. Each bar represents an experiment of at least six mice and 12 tumors. Bars are marked by number (1) (tumor reduction of <30%) or by number (2) (tumor reduction of >30%). d) Average copy number of 5 patient derived xenograft tumor models not benefitting from FGFR inhibition (marked by number (1)) and 3 patient derived xenograft tumor (PDX) models which benefit from FGFR inhibition (marked by number (2)). Copy number was extracted from genomic sequencing data and plotted to chromosome 8 (hg19) with ROBOCOP. e) Tumor volume change of patients with squamous cell lung cancer harboring FGFR1 amplification and treated with BG.J398. […]
Finally, the inventors analyzed biopsy specimens obtained from 10 patients with FGFR1-amplified squamous cell lung cancer. […]

Take AZD4547: the “sensitivity to FGFR inhibition” value in assay [1] is recorded as “highly sensitive”.

Consider `CCN1CCN(c2ccc(Nc3cc(N(C)C(=O)Nc4c(Cl)c(OC)cc(OC)c4Cl)ncn3)cc2)CC1` [BG.J398], for which the GI50 was less than 1 µM with DMS114, less than 1 µM in the assay with H1581 and greater than 1 µM in assay [2]. Besides, the “Average tumor growth reduction vs. vehicle” value in assay [3] (3 PDX models which benefit, bars (2)) was greater than 30%; in assay [3] (5 PDX models not benefitting, bars (1)), less than 30%. In addition, the “PDX models sensitive to FGFR inhibition” value in assay [3] (8 FGFR1 amplified PDX models) is reported as “Three of the 8 patient derived xenotransplant (PDX) models were sensitive”. Also, the “patients with durable, partial response (tumor volume change by RECIST)” value in assay [4] was 3 patients. For the same compound, the “patients with progressive disease (tumor volume change by RECIST)” value in assay [4] was determined as 5 patients. Further, the “sensitivity to FGFR inhibition” value in assay [1] is given as “highly sensitive”.
